The results in this text go back to US9499538B2, “Estrogen receptor modulators and uses thereof” (Seragon Pharmaceuticals, Inc., priority 2012, dated 2016).

The target in experiment [1] is T1, ER-α in MCF-7 cells (Homo sapiens, UniProt P03372).
T1 construct: endogenous in cells; host or cells: MCF-7
T1 sequence (P03372 1-595): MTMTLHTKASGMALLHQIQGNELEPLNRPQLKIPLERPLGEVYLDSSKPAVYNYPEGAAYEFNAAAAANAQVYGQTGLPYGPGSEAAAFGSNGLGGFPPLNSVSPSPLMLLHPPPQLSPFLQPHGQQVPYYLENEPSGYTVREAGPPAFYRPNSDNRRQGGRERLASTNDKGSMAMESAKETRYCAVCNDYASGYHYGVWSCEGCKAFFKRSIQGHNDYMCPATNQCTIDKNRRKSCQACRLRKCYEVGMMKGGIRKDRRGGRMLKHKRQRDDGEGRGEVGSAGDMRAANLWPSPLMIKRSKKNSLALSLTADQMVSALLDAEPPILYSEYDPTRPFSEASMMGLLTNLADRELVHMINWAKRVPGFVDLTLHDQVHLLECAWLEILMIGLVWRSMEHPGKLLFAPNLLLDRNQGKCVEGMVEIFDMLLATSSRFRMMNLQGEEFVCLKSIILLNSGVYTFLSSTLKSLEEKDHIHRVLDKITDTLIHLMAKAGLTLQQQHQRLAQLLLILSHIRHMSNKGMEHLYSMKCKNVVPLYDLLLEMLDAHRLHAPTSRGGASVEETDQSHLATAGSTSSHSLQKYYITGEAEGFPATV
Nature of the experiment: Breast Cancer Cell ER-α In Cell Western Assay (SP1). Conditions: 4 or 24 hr post compound addition; for Emax: MCF7, SP1 antibody, read-out: ER-α In Cell Western Assay (SP1) Max Response; for DC50: SP1 antibody, read-out: ER-α In Cell Western Assay (SP1) IC50. It counts as cell-based. In short, it runs like this: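 ER-α levels quantified by in-cell western: SP1 signal normalised to DRAQ5 DNA stain, relative to untreated cells (% ER). Compounds at 0.3–0.000003 μM final, 11-point semilog series, 4 or 24 h exposure of MCF-7 cells grown in charcoal-stripped serum.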

For experiment [2], the system named is MCF-7 cells. Description: Breast Cancer Cell Viability Assays (MCF-7, CellTiter-Glo). The format is cell-based. Conditions: 5 days' compound exposure; for IC50: Homo sapiens, MCF7, 120 h. The gist of the method: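 Percent viability, background-subtracted against untreated wells, was taken from CellTiter-Glo luminescence after 5 days' exposure of MCF-7 cells. Compounds were tested at eleven semilog concentrations, final 0.3–0.000003 μM, in RPMI containing 10% FBS.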

As for `CC/C(=C(/c1ccc(/C=C/C(=O)O)cc1)c1ccc2[nH]nc(F)c2c1)c1ccc(F)cc1C#N` [Example 102, (E)-3-(4-((E)-2-(2-Cyano-4-fluorophenyl)-1-(3-fluoro-1H-indazol-5-yl)but-1-en-1-yl)phenyl)acrylic acid], in experiment [1], the Emax is at least 40% and the DC50 is at most 0.1 µM. In addition, in experiment [2], the “MCF7 Viability Assay Max Response” value is “++ (++ = a single % value ≧ 40%)” and the IC50 was at most 0.1 µM.
In the case of `CC/C(=C(/c1ccc(/C=C/C(=O)O)cc1)c1ccc2[nH]nc(F)c2c1)c1ccc(C(F)(F)F)cc1C#N` [Example 103], in experiment [1], the Emax was at least 40% and the DC50 was at most 0.1 µM. Also, in experiment [2], the “MCF7 Viability Assay Max Response” value is listed as “++ (++ = a single % value ≧ 40%)” and the IC50 is at most 0.1 µM.
Turning to `CC/C(=C(/c1ccc(/C=C/C(=O)O)cc1)c1ccc2[nH]nc(F)c2c1)c1ccc(C#N)cc1F` [Example 104, (E)-3-(4-((E)-2-(4-Cyano-2-fluorophenyl)-1-(3-fluoro-1H-indazol-5-yl)but-1-en-1-yl)phenyl)acrylic acid], in experiment [1], the Emax was at least 40% and the DC50 is at most 0.1 µM. In experiment [2], the “MCF7 Viability Assay Max Response” value was “++ (++ = a single % value ≧ 40%)” and the IC50 is at most 0.1 µM.
For `CC/C(=C(/c1ccc(/C=C/C(=O)O)cc1)c1ccc2[nH]nc(F)c2c1)c1ccc(C#N)cc1C` [Example 105], in experiment [1], the Emax was at least 40% and the DC50 was at most 0.1 µM. For the same molecule, in experiment [2], the “MCF7 Viability Assay Max Response” value is reported as “++ (++ = a single % value ≧ 40%)” and the IC50 is at most 0.1 µM.
With `CC/C(=C(/c1ccc(/C=C/C(=O)O)cc1)c1ccc2[nH]nc(F)c2c1)c1ccc(C#N)cc1Cl` [Example 106, (E)-3-(4-((E)-2-(2-Chloro-4-cyanophenyl)-1-(3-fluoro-1H-indazol-5-yl)but-1-en-1-yl)phenyl)acrylic acid], in experiment [1], the Emax was at least 40% and the DC50 was at most 0.1 µM. In addition, in experiment [2], the “MCF7 Viability Assay Max Response” value was “++ (++ = a single % value ≧ 40%)” and the IC50 was at most 0.1 µM.
Turning to `CC/C(=C(/c1ccc(/C=C/C(=O)O)cc1)c1ccc2[nH]nc(F)c2c1)c1ccc(OC)cc1C#N` [Example 107], in experiment [1], the Emax was at least 40% and the DC50 is at most 0.1 µM. Further, in experiment [2], the “MCF7 Viability Assay Max Response” value is “++ (++ = a single % value ≧ 40%)” and the IC50 was at most 0.1 µM.
With `N#Cc1cc(Cl)ccc1/C(=C(\c1ccc(/C=C/C(=O)O)cc1)c1ccc2[nH]nc(F)c2c1)C1CCC1` [Example 108, (E)-3-(4-((E)-2-(4-Chloro-2-cyanophenyl)-2-cyclobutyl-1-(3-fluoro-1H-indazol-5-yl)vinyl)phenyl)acrylic acid], in experiment [1], the Emax was at least 40% and the DC50 is at most 0.1 µM. Besides, in experiment [2], the “MCF7 Viability Assay Max Response” value is reported as “++ (++ = a single % value ≧ 40%)” and the IC50 is at most 0.1 µM.
As to `N#Cc1cc(Cl)ccc1/C(=C(\c1ccc(/C=C/C(=O)O)cc1)c1ccc2[nH]ncc2c1)C1CCC1` [Example 109, (E)-3-(4-((E)-2-(4-Chloro-2-cyanophenyl)-2-cyclobutyl-1-(1H-indazol-5-yl)vinyl)phenyl)acrylic acid], in experiment [1], the Emax was at least 40% and the DC50 was at most 0.1 µM. Moreover, in experiment [2], the “MCF7 Viability Assay Max Response” value is listed as “++ (++ = a single % value ≧ 40%)” and the IC50 is at most 0.1 µM.
Regarding `CCOc1cc(C)c(/C(=C(\c2ccc(/C=C/C(=O)O)cc2)c2ccc3[nH]nc(F)c3c2)C2CCC2)cn1` [Example 110, (E)-3-(4-((E)-2-Cyclobutyl-2-(6-ethoxy-4-methylpyridin-3-yl)-1-(3-fluoro-1H-indazol-5-yl)vinyl)phenyl)acrylic acid], in experiment [1], the Emax was at least 40% and the DC50 was at most 0.1 µM. In experiment [2], the “MCF7 Viability Assay Max Response” value is reported as “++ (++ = a single % value ≧ 40%)” and the IC50 was at most 0.1 µM.
For the molecule `COc1ncc(/C(=C(\c2ccc(/C=C/C(=O)O)cc2)c2ccc3[nH]nc(F)c3c2)C2CCC2)c(C(F)(F)F)n1` [Example 111, (E)-3-(4-((E)-2-Cyclobutyl-1-(3-fluoro-1H-indazol-5-yl)-2-(2-methoxy-4-(trifluoromethyl)pyrimidin-5-yl)vinyl)phenyl)acrylic acid], in experiment [1], the Emax was at least 40% and the DC50 was at most 0.1 µM. In experiment [2], the “MCF7 Viability Assay Max Response” value is listed as “++ (++ = a single % value ≧ 40%)” and the IC50 is at most 0.1 µM.
For the molecule `COc1cc(C)c(/C(=C(\c2ccc(/C=C/C(=O)O)cc2)c2ccc3[nH]nc(F)c3c2)C2CCC2)cn1` [Example 112, (E)-3-(4-((E)-2-Cyclobutyl-1-(3-fluoro-1H-indazol-5-yl)-2-(6-methoxy-4-methylpyridin-3-yl)vinyl)phenyl)acrylic acid], in experiment [1], the Emax is at least 40% and the DC50 is at most 0.1 µM. Moreover, in experiment [2], the “MCF7 Viability Assay Max Response” value is recorded as “++ (++ = a single % value ≧ 40%)” and the IC50 was at most 0.1 µM.
With `COc1ccc(/C(=C(\c2ccc(/C=C/C(=O)O)cc2)c2ccc3[nH]nc(F)c3c2)C2CC2)c(F)c1` [Example 113, (E)-3-(4-((E)-2-Cyclopropyl-1-(3-fluoro-1H-indazol-5-yl)-2-(2-fluoro-4-methoxyphenyl)vinyl)phenyl)acrylic acid], in experiment [1], the Emax is at least 40% and the DC50 was at most 0.1 µM. Besides, in experiment [2], the “MCF7 Viability Assay Max Response” value was “++ (++ = a single % value ≧ 40%)” and the IC50 is at most 0.1 µM.
With `COc1ccc(/C(=C(\c2ccc(/C=C/C(=O)O)cc2)c2ccc3[nH]nc(F)c3c2)C2CC2)c(Cl)c1` [Example 114, (E)-3-(4-((E)-2-(2-Chloro-4-methoxyphenyl)-2-cyclopropyl-1-(3-fluoro-1H-indazol-5-yl)vinyl)phenyl)acrylic acid], in experiment [1], the Emax is at least 40% and the DC50 is at most 0.1 µM. Moreover, in experiment [2], the “MCF7 Viability Assay Max Response” value is “++ (++ = a single % value ≧ 40%)” and the IC50 is at most 0.1 µM.
Regarding `COc1ccc(/C(=C(\c2ccc(/C=C/C(=O)O)cc2)c2ccc3[nH]nc(F)c3c2)C2CC2)c(C)c1` [Example 115, (E)-3-(4-((E)-2-Cyclopropyl-1-(3-fluoro-1H-indazol-5-yl)-2-(4-methoxy-2-methylphenyl)vinyl)phenyl)acrylic acid], in experiment [1], the Emax is at least 40% and the DC50 is at most 0.1 µM. Besides, in experiment [2], the “MCF7 Viability Assay Max Response” value was “++ (++ = a single % value ≧ 40%)” and the IC50 was at most 0.1 µM.
Consider `COc1cc(C)c(/C(=C(\c2ccc(/C=C/C(=O)O)cc2)c2ccc3[nH]nc(F)c3c2)C2CC2)cn1` [Example 116, (E)-3-(4-((E)-2-Cyclopropyl-1-(3-fluoro-1H-indazol-5-yl)-2-(6-methoxy-4-methylpyridin-3-yl)vinyl)phenyl)acrylic acid], for which, in experiment [1], the Emax was at least 40% and the DC50 is at most 0.1 µM. For the same molecule, in experiment [2], the “MCF7 Viability Assay Max Response” value was “++ (++ = a single % value ≧ 40%)” and the IC50 was at most 0.1 µM.
For `CCOc1cc(C)c(/C(=C(\c2ccc(/C=C/C(=O)O)cc2)c2ccc3[nH]nc(F)c3c2)C2CC2)cn1` [Example 117, (E)-3-(4-((E)-2-Cyclopropyl-2-(6-ethoxy-4-methylpyridin-3-yl)-1-(3-fluoro-1H-indazol-5-yl)vinyl)phenyl)acrylic acid], in experiment [1], the Emax was at least 40% and the DC50 was at most 0.1 µM. Besides, in experiment [2], the “MCF7 Viability Assay Max Response” value was “++ (++ = a single % value ≧ 40%)” and the IC50 is at most 0.1 µM.
On to `Cc1cc(C#N)ccc1/C(=C(\c1ccc(/C=C/C(=O)O)cc1)c1ccc2[nH]nc(F)c2c1)C1CC1` [Example 118, (E)-3-(4-((E)-2-(4-Cyano-2-methylphenyl)-2-cyclopropyl-1-(3-fluoro-1H-indazol-5-yl)vinyl)phenyl)acrylic acid], for which, in experiment [1], the Emax is at least 40% and the DC50 was at most 0.1 µM. For the same molecule, in experiment [2], the “MCF7 Viability Assay Max Response” value is “++ (++ = a single % value ≧ 40%)” and the IC50 was at most 0.1 µM.
Consider `N#Cc1ccc(/C(=C(\c2ccc(/C=C/C(=O)O)cc2)c2ccc3[nH]nc(F)c3c2)C2CC2)c(Cl)c1` [Example 119, (E)-3-(4-((E)-2-(2-Chloro-4-cyanophenyl)-2-cyclopropyl-1-(3-fluoro-1H-indazol-5-yl)vinyl)phenyl)acrylic acid], for which, in experiment [1], the Emax was at least 40% and the DC50 is at most 0.1 µM. In experiment [2], the “MCF7 Viability Assay Max Response” value is “++ (++ = a single % value ≧ 40%)” and the IC50 is at most 0.1 µM.
Consider `N#Cc1cc(Cl)ccc1/C(=C(\c1ccc(/C=C/C(=O)O)cc1)c1ccc2[nH]nc(F)c2c1)C1CC1` [Example 120, (E)-3-(4-((E)-2-(4-Chloro-2-cyanophenyl)-2-cyclopropyl-1-(3-fluoro-1H-indazol-5-yl)vinyl)phenyl)acrylic acid], for which, in experiment [1], the Emax is at least 40% and the DC50 was at most 0.1 µM. Further, in experiment [2], the “MCF7 Viability Assay Max Response” value is reported as “++ (++ = a single % value ≧ 40%)” and the IC50 was at most 0.1 µM.
